# Test results published in US20240383900A1, “SUBSTITUTED PYRAZOLO [1,5-A]PYRIMIDINE-7-AMINE COMPOUNDS AS CDK INHIBITORS AND THEIR THERAPEUTIC USE” (Carrick Therapeutics Limited, priority 2021, published 2024).
# Read-outs that look alike come from different tables or passages of the source.
# Columns and labels:
# [1] = test system: A673 cells; test: Cytotoxicity in A673 cells (Cell Titer Glo viability); format: cell-based; settings: for Ratio of Biochemical Potency:Cellular Potency: CDK12 IC50 / A673 IC50; for IC50: Homo sapiens
# Protocol: (§1) Cells were plated in 96-well plates at a density of […] viable cells per well in 200 μL fully supplemented growth medium (DMEM+10% heat inactivated foetal bovine serum) and incubated for 24 hours in standard tissue culture conditions. Compounds, including MLN4924, were solubilised in DMSO and then diluted in fully supplemented growth medium at 2× their final assay concentration such that the final DMSO concentration was 0.1%. Growth medium in the assay plates was replaced with 50 μL of growth medium containing 2×MLN4924 (final assay concentration: 30 nM, where tested) or vehicle only and 50 μL of growth medium containing a 2× compound concentration series or vehicle only such that each compound was at 1× final assay concentration in 100 μL.
# Cells were then incubated for 72 hours in standard tissue culture conditions before viability was assessed using 50 μL Cell Titer Glo reagent (Promega) per well and luminescence measured on an EnVision plate reader. Data were normalised to vehicle control (100%) and cells treated with 0.1% Triton x-100 for 1 hour before viability measurement (0%; full cell kill). […] Viability curves generated in the presence of MLN4924 were normalised and fixed to controls treated with MLN4924.
# [2] = target: Human CDK12 wt/CycK (Homo sapiens (Human), UniProt Q9NYV4); test: Radiometric protein kinase assay (33PanQinase Activity Assay), CDK12; format: biochemical; settings: for CDK7/CDK12: ratio of CDK7 IC50 to CDK12 IC50, greater than 1 indicates selectivity for CDK12
# Protocol: (§2) A radiometric protein kinase assay (^33PanQinase® Activity Assay) was used for measuring the kinase activity of the two protein kinases (CDK12/CDK7). All kinase assays were performed in 96-well FlashPlates™ from PerkinElmer (Boston, MA, USA) in a 50 μL reaction volume.
# (§3) The reaction cocktail was pipetted in four steps in the following order: • 20 μL of assay buffer (standard buffer) • 5 μL of ATP solution (in H2O) • 5 μL of test compound (in 10% DMSO) • 10 μL of substrate/10 μL of enzyme solution (premixed)
# (§4) The reaction mixture was incubated at 30° C. for 60 min and then stopped by the addition of 2% (v/v) H3PO4. Plates were aspirated and washed two times with 200 μL 0.9% (w/v) NaCl. Incorporation of ^33Pi was determined with a microplate scintillation count (Microbeta, Wallac).
# The fitting method used was a least-squares fit.
# [3] = target: Human CDK7/CycH/MAT1 (Homo sapiens (Human), UniProt P50613); test: Radiometric protein kinase assay (33PanQinase Activity Assay), CDK7; format: biochemical; settings: ATP 3 μM
# Protocol: Additionally for the CDK7 assay: • Human CDK7/CycH/MAT1 (ProQinase, 0366-0360-4—Lot 2). • RBER-CHKtide (ProQinase, 0581-0000-5—Lot 106).
# as §2, §3
# For the CDK7 assay, a reaction mixture (50 μL) containing the following components was prepared: • 70 mM HEPES-NaOH (pH 7.5); • sodium orthovanadate (3 μM); • PEG-20000 (50 μg/mL); • DTT (1.2 mM); • MgCl2 (3 mM); • MnCl2 (3 mM); • purified human CDK7/CycH/MAT1 (3.3 nM—Lot 02); • RBER-CHKtide substrate (40 μg/mL—Lot 106); • ATP (3 μM); • [γ-33P]-ATP (approx. 8×10^5 cpm per well); and • test compound at the appropriate concentration such that the final concentration of DMSO was […].
# as §4
# The residual activities for each concentration and the compound IC50 values were calculated using Quattro Workflow V3.1.1 (Quattro Research GmbH, Munich, Germany). The fitting model for the IC50 determinations was “Sigmoidal response (variable slope)” with parameters “top” fixed at 100% and “bottom” at 0%. The fitting method used was a least-squares fit.
# [4] = test system: A673 cells; test: A673 cytotoxic potency shift in the presence of MLN4924 (cyclin K degrader activity); format: cell-based; settings: 30 nM MLN4924, 72 hours
# Protocol: Inhibition of cell viability by test compounds was assessed in A673 cells (ATCC CRL-1598) and the compound mode of action was attributed to a “molecular-glue”/cyclin K-degradation mechanism by probing for a loss of compound potency in the presence of the NEDD8-activating enzyme inhibitor, MLN4924.
# as §1
# Cells were then incubated for 72 hours in standard tissue culture conditions before viability was assessed using 50 μL Cell Titer Glo reagent (Promega) per well and luminescence measured on an EnVision plate reader. Data were normalised to vehicle control (100%) and cells treated with 0.1% Triton x-100 for 1 hour before viability measurement (0%; full cell kill). IC50 values were determined using a semi-logistic curve fit with parameters “top” fixed at 100% and “bottom” at or below 0%. Viability curves generated in the presence of MLN4924 were normalised and fixed to controls treated with MLN4924.
# [5] = A673, read-out: Cellular Potency IC50 (nM) (in A673 cells)
# [6] = A673 cells, 72 hours, read-out: A673 IC50
# [7] = ATP 0.3 μM, read-out: CDK12 IC50
# [8] = read-out: CKD12 Biochemical Potency IC50
# Human CDK12 wt/CycK, sequence (Q9NYV4 whole entry): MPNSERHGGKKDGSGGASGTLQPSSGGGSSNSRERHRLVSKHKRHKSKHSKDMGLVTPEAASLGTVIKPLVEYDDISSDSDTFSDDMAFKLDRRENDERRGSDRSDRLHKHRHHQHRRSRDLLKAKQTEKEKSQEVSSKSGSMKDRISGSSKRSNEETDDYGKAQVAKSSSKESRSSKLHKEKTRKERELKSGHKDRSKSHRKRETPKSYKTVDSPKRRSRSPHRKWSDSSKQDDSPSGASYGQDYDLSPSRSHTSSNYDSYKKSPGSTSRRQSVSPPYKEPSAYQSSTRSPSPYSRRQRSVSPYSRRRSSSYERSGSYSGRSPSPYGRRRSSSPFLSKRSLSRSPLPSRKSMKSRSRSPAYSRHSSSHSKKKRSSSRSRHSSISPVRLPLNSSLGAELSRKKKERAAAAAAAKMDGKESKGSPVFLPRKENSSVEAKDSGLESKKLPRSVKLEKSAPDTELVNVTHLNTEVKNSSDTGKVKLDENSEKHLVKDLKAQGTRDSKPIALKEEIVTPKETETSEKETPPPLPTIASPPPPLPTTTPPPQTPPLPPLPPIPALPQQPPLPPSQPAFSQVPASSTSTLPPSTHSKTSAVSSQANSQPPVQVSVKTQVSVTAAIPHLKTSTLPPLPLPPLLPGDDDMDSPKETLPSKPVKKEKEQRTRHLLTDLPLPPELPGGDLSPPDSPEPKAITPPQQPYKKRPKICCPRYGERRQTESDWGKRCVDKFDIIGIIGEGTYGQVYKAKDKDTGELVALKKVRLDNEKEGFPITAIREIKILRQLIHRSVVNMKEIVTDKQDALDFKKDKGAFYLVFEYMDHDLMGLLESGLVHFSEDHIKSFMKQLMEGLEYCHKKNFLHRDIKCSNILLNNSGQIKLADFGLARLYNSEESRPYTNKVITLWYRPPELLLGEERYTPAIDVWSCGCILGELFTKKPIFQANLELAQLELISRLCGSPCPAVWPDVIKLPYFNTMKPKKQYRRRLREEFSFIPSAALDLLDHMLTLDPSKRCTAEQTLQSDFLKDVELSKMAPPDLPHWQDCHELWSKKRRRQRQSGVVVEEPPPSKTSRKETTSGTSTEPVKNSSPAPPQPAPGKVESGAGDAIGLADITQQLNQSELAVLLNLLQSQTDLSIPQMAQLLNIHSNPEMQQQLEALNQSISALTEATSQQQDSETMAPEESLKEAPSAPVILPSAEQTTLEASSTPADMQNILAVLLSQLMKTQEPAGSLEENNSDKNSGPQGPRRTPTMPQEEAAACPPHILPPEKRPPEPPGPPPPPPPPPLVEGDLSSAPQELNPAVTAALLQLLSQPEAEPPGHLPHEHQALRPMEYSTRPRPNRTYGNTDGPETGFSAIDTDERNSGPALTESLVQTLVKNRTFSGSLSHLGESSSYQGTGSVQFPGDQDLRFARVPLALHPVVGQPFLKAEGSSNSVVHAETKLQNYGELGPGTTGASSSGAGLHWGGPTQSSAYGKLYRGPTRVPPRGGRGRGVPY
# Human CDK12 wt/CycK, sequence (O75909 whole entry partner): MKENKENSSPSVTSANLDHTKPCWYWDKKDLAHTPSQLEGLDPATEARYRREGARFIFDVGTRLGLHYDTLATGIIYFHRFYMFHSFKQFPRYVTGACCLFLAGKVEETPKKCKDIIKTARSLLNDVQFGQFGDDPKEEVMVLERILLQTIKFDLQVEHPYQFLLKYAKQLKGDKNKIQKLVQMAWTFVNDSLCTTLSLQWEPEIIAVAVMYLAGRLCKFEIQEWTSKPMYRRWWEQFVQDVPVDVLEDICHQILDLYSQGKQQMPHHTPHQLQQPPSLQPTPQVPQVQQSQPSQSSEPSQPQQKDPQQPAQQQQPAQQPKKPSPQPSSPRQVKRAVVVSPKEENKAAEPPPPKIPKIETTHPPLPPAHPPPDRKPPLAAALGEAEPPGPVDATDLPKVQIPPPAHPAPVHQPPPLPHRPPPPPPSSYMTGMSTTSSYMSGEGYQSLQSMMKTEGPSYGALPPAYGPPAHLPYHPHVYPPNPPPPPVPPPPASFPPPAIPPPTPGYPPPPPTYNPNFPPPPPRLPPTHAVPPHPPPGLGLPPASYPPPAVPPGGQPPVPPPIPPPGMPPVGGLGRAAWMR
# Human CDK7/CycH/MAT1, sequence (P50613 whole entry): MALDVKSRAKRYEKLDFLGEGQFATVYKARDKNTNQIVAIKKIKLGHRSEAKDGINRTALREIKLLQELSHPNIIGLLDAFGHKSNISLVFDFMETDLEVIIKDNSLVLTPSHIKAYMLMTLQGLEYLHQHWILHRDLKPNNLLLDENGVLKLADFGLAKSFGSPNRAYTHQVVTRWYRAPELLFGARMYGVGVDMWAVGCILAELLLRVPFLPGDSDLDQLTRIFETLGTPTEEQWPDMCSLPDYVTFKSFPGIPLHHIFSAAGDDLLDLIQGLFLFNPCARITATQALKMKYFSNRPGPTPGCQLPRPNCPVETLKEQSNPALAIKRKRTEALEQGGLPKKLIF
# Human CDK7/CycH/MAT1, sequence (P51946 whole entry partner): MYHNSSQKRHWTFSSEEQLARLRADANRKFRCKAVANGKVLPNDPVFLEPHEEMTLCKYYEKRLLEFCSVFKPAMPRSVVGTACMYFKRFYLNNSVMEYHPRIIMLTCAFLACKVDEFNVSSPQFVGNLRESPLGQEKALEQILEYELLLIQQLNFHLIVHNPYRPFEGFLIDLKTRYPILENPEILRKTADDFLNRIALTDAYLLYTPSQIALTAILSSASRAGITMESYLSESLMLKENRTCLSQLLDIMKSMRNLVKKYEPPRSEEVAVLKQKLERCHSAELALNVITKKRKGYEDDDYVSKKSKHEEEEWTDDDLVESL
# Human CDK7/CycH/MAT1, sequence (P51948 whole entry partner): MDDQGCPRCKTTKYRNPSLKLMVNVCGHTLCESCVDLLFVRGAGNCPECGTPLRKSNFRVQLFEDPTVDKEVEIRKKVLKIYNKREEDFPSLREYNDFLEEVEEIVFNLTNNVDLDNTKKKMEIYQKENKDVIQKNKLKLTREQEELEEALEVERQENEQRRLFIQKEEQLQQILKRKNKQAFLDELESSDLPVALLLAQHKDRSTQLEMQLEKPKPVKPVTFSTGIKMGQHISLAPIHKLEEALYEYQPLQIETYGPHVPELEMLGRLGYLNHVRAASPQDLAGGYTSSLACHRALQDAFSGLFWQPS
Structure (SMILES),Ratio of Biochemical Potency:Cellular Potency [1],"IC50 [1, 5]","IC50 [1, 6]","IC50 [2, 7]",CDK7/CDK12 [2],"IC50 [2, 8]",IC50 [3],Cyclin K Degrader Activity (A673 potency shift + MLN4924) [4]
"CC(C)c1cnn2c(NCc3ccc(-c4ccccc4)cc3)cc(NC[C@H]3CCNC[C@@H]3O)nc12 [PPA-004, (3R,4R)-4-(((7-(([1,1′-biphenyl]-4-ylmethyl)amino)-3-isopropylpyrazolo[1,5-a]pyrimidin-5-yl)amino)methyl)piperidin-3-ol]",22.70,6.3 nM,6.3 nM,143 nM,4.0,143 nM,576 nM,+++ (>5 fold change.)
O[C@H]1CNCC[C@@H]1CNc1cc(NCc2ccc(-n3cccn3)cc2)n2ncc(C3CC3)c2n1 [PPA-009],42.31,1.3 nM,1.3 nM,55 nM,3.9,55 nM,212 nM,++ (>2 and ≤5 fold change.)
O[C@H]1CNCC[C@@H]1CNc1cc(NCc2ccc(-c3nccs3)cc2)n2ncc(C3CC3)c2n1 [PPA-018],43.33,0.9 nM,0.9 nM,39 nM,2.7,39 nM,106 nM,+++ (>5 fold change.)
O[C@H]1CNCC[C@@H]1CNc1cc(NCc2ccc(-c3ncccn3)cc2F)n2ncc(C3CC3)c2n1 [PPA-067],25.00,2.6 nM,2.6 nM,65 nM,8.6,65 nM,562 nM,
CCc1cnn2c(NCc3ccc(-c4ccccn4)cc3F)cc(NC[C@H]3CCNC[C@@H]3O)nc12 [PPA-068],28.00,1.5 nM,1.5 nM,42 nM,7.7,42 nM,323 nM,
F[C@@H]1CNC[C@H]1Oc1cc(NCc2ccc(-c3ccccn3)cc2)n2ncc(C3CC3)c2n1 [PPA-073],1.72,19.2 nM,19.2 nM,33 nM,16.0,33 nM,529 nM,
O[C@H]1CNCC[C@@H]1CNc1cc(NCc2ccc(-c3ccccn3)cc2F)n2ncc(Cl)c2n1 [PPA-074],32.86,0.7 nM,0.7 nM,23 nM,15.2,23 nM,350 nM,
O=C1C[C@H](Nc2cc(NCc3ccc(-c4ccccn4)cc3)n3ncc(C4CC4)c3n2)CN1 [PPA-075],25.44,5.7 nM,5.7 nM,145 nM,32.6,145 nM,4720 nM,
O[C@H]1CNCC[C@@H]1CNc1cc(NCc2c(F)cc(-c3ccccc3)cc2F)n2ncc(C3CC3)c2n1 [PPA-076],<14.9,> 100 nM,> 100 nM,1490 nM,1.5,1490 nM,2250 nM,
c1ccc(-c2ccc(CNc3cc(N4CCNC5(CC5)C4)nc4c(C5CC5)cnn34)cc2)nc1 [PPA-077],5.47,7.5 nM,7.5 nM,41 nM,33.9,41 nM,1390 nM,
N[C@H]1CC(=O)N(c2cc(NCc3ccc(-c4ccccn4)cc3)n3ncc(C4CC4)c3n2)C1 [PPA-078],19.64,30.2 nM,30.2 nM,593 nM,10.5,593 nM,6240 nM,
c1ccc(-c2ccc(CNc3cc(-c4ccn[nH]4)nc4c(C5CC5)cnn34)cc2)nc1 [PPA-079],<11.9,> 100 nM,> 100 nM,1190 nM,,1190 nM,> 30000 nM,
N#Cc1cnn2c(NCc3ccc(-c4ccccc4)cc3)cc(NC[C@H]3CCNC[C@@H]3O)nc12 [PPA-081],7.50,7.6 nM,7.6 nM,57 nM,6.0,57 nM,344 nM,
CCc1cnn2c(NCc3ccc(-c4ccccc4)cc3)cc(NC[C@H]3CCNC[C@@H]3O)nc12 [PPA-082],4.58,9.6 nM,9.6 nM,44 nM,2.8,44 nM,125 nM,
O[C@H]1CNCC[C@@H]1CNc1cc(NCc2ccc(-c3ccccc3)cc2)n2ncc(Cl)c2n1 [PPA-083],7.11,4.5 nM,4.5 nM,32 nM,3.7,32 nM,118 nM,
c1ccc(-c2ccc(CNc3cc(N4CC5(CNC5)C4)nc4c(C5CC5)cnn34)cc2)nc1 [PPA-084],15.28,73.3 nM,73.3 nM,1120 nM,12.5,1120 nM,14000 nM,
N#Cc1cnn2c(NCc3ccc(-c4ncccn4)cc3)cc(N[C@H]3CCCNC3)nc12 [PPA-094],,0.9 nM,1.9 nM,,,,,+++ (>5 fold change.)
Cc1n[nH]cc1-c1cc(NCc2ccc(-c3ccccn3)cc2)n2ncc(C3CC3)c2n1 [PPA-095],,43.5 nM,4.7 nM,,,,,+ (>1 and ≤2 fold change.)
Cc1ncccc1-c1cc(NCc2ccc(-c3ccccn3)cc2)n2ncc(C3CC3)c2n1 [PPA-096],,14.9 nM,7.6 nM,,,,,+++ (>5 fold change.)
c1cnn(-c2ccc(CNc3cc(OC4CNC4)nc4c(C5CC5)cnn34)cc2)c1 [PPA-097],,3.5 nM,0.4 nM,,,,,+++ (>5 fold change.)
c1csc(-c2ccc(CNc3cc(N[C@H]4CCNC4)nc4c(C5CC5)cnn34)cc2)n1 [PPA-098],,8.1 nM,3.2 nM,,,,,+++ (>5 fold change.)
c1cnn(-c2ccc(CNc3cc(N[C@H]4CCCNC4)nc4c(C5CC5)cnn34)cc2)c1 [PPA-099],,1.2 nM,0.9 nM,,,,,++ (>2 and ≤5 fold change.)
c1ccc(-c2ccc(CNc3cc(C4CCNCC4)nc4c(C5CC5)cnn34)cc2)nc1 [PPA-100],,1.5 nM,43.5 nM,,,,,+++ (>5 fold change.)
